From patent US20160376605A1, “WHEAT PLANTS HAVING INCREASED TOLERANCE TO IMIDAZOLINONE HERBICIDES” (BASF SE, priority 2003, published 2016)

Assays:
Assay in all cases: Field Trials (2): tolerance scores at two rates of imazamox
Type in all cases: in vivo
[1] = system: Durum wheat M3:4 lines derived from M2 plant UT15; details: UT15, range across M3:4 lines
Excerpt: (§1) One hundred ten M3:4 lines derived from sixteen M2 plants were screened at 71 g/ha and 160 g/ha imazamox. The number of M4 lines per M2 plant varied from one to twenty. Tolerance of M3:4 lines was compared to untreated plots of the same line as well as to treated plots of a wild-type cultivar from which some of them were derived.
(§2) All tested lines survived at both rates of herbicide treatment, whereas all plants of the wild type were killed at both rates. Based on comparison to the wild type line, all lines tested expressed considerable tolerance to the applied rates, particularly when looking at height reduction relative to untreated plots. A rate of 35 g/ha imazamox is adequate to kill susceptible durum wheat.

[2] = system: Durum wheat M3:4 lines derived from M2 plant UT01; details: UT01, range across M3:4 lines
Excerpt: as §1, §2

[3] = system: Durum wheat M3:4 lines derived from M2 plant UT16; details: UT16, range across M3:4 lines
Excerpt: as §1, §2

[4] = system: Durum wheat M3:4 lines derived from M2 plant UT13; details: UT13, range across M3:4 lines
Excerpt: as §1, §2

[5] = system: Durum wheat M3:4 lines derived from M2 plant UT14; details: UT14, range across M3:4 lines
Excerpt: as §1, §2

[6] = system: Durum wheat M3:4 lines derived from M2 plant UT10; details: UT10, range across M3:4 lines
Excerpt: as §1, §2

[7] = system: Durum wheat M3:4 lines derived from M2 plant UT20; details: UT20, range across M3:4 lines
Excerpt: as §1, §2

[8] = system: Durum wheat M3:4 lines derived from M2 plant UT07; details: UT07, range across M3:4 lines
Excerpt: as §1, §2

[9] = system: Wild Type durum wheat cultivar; details: for % Chlorosis / % Height Reduction: Wild Type
Excerpt: as §1, §2

[10] = system: Durum wheat M3:4 lines derived from M2 plant UT08; details: UT08, range across M3:4 lines
Excerpt: as §1, §2

[11] = system: Durum wheat M3:4 lines derived from M2 plant UT19; details: UT19, range across M3:4 lines
Excerpt: as §1, §2

[12] = system: Durum wheat M3:4 lines derived from M2 plant UT12; details: UT12, range across M3:4 lines
Excerpt: as §1, §2

[13] = system: Durum wheat M3:4 lines derived from M2 plant UT05; details: UT05, range across M3:4 lines
Excerpt: as §1, §2

COCc1cnc(C2=NC(C)(C(C)C)C(=O)N2)c(C(=O)O)c1 (centres unmarked) [imazamox]
% Chlorosis ([1]; imazamox 71 g/ha, 14 DAT): 30-70% | % Height Reduction ([1]; imazamox 71 g/ha, 14 DAT): 0-10% | % Chlorosis ([1]; imazamox 71 g/ha, 30 DAT): 0-10% | % Height Reduction ([1]; imazamox 71 g/ha, 30 DAT): 5-20% | % Chlorosis ([1]; imazamox 160 g/ha, 14 DAT): 30-70% | % Height Reduction ([1]; imazamox 160 g/ha, 14 DAT): 0-10% | % Chlorosis ([1]; imazamox 160 g/ha, 30 DAT): 0-15% | % Height Reduction ([1]; imazamox 160 g/ha, 30 DAT): 5-30% | % Chlorosis ([2]; imazamox 71 g/ha, 14 DAT): 0-10% | % Height Reduction ([2]; imazamox 71 g/ha, 14 DAT): 0% | % Chlorosis ([2]; imazamox 71 g/ha, 30 DAT): 0% | % Height Reduction ([2]; imazamox 71 g/ha, 30 DAT): 0-10% | % Chlorosis ([2]; imazamox 160 g/ha, 14 DAT): 1-10% | % Height Reduction ([2]; imazamox 160 g/ha, 14 DAT): 0% | % Chlorosis ([2]; imazamox 160 g/ha, 30 DAT): 0-5% | % Height Reduction ([2]; imazamox 160 g/ha, 30 DAT): 0-20% | % Chlorosis ([3]; imazamox 71 g/ha, 14 DAT): 5-10% | % Height Reduction ([3]; imazamox 71 g/ha, 14 DAT): 0% | % Chlorosis ([3]; imazamox 71 g/ha, 30 DAT): 0% | % Height Reduction ([3]; imazamox 71 g/ha, 30 DAT): 0-10% | % Chlorosis ([3]; imazamox 160 g/ha, 14 DAT): 10-20% | % Height Reduction ([3]; imazamox 160 g/ha, 14 DAT): 0-10% | % Chlorosis ([3]; imazamox 160 g/ha, 30 DAT): 0-5% | % Height Reduction ([3]; imazamox 160 g/ha, 30 DAT): 0-10% | % Chlorosis ([4]; imazamox 71 g/ha, 14 DAT): 5% | % Height Reduction ([4]; imazamox 71 g/ha, 14 DAT): 0-10% | % Chlorosis ([4]; imazamox 71 g/ha, 30 DAT): 5% | % Height Reduction ([4]; imazamox 71 g/ha, 30 DAT): 5% | % Chlorosis ([4]; imazamox 160 g/ha, 14 DAT): 5% | % Height Reduction ([4]; imazamox 160 g/ha, 14 DAT): 0-10% | % Chlorosis ([4]; imazamox 160 g/ha, 30 DAT): 5-10% | % Height Reduction ([4]; imazamox 160 g/ha, 30 DAT): 5% | % Chlorosis ([5]; imazamox 71 g/ha, 14 DAT): 5-10% | % Height Reduction ([5]; imazamox 71 g/ha, 14 DAT): 0% | % Chlorosis ([5]; imazamox 71 g/ha, 30 DAT): 0% | % Height Reduction ([5]; imazamox 71 g/ha, 30 DAT): 0-10% | % Chlorosis ([5]; imazamox 160 g/ha, 14 DAT): 10% | % Height Reduction ([5]; imazamox 160 g/ha, 14 DAT): 0-10% | % Chlorosis ([5]; imazamox 160 g/ha, 30 DAT): 0% | % Height Reduction ([5]; imazamox 160 g/ha, 30 DAT): 0-10% | % Chlorosis ([6]; imazamox 71 g/ha, 14 DAT): 5-10% | % Height Reduction ([6]; imazamox 71 g/ha, 14 DAT): 0-10% | % Chlorosis ([6]; imazamox 71 g/ha, 30 DAT): 5% | % Height Reduction ([6]; imazamox 71 g/ha, 30 DAT): 0-5% | % Chlorosis ([6]; imazamox 160 g/ha, 14 DAT): 10% | % Height Reduction ([6]; imazamox 160 g/ha, 14 DAT): 0-20% | % Chlorosis ([6]; imazamox 160 g/ha, 30 DAT): 5% | % Height Reduction ([6]; imazamox 160 g/ha, 30 DAT): 0-10% | % Chlorosis ([7]; imazamox 71 g/ha, 14 DAT): 0-5% | % Height Reduction ([7]; imazamox 71 g/ha, 14 DAT): 0% | % Chlorosis ([7]; imazamox 71 g/ha, 30 DAT): 0% | % Height Reduction ([7]; imazamox 71 g/ha, 30 DAT): 5-10% | % Chlorosis ([7]; imazamox 160 g/ha, 14 DAT): 5-10% | % Height Reduction ([7]; imazamox 160 g/ha, 14 DAT): 0-20% | % Chlorosis ([7]; imazamox 160 g/ha, 30 DAT): 0% | % Height Reduction ([7]; imazamox 160 g/ha, 30 DAT): 10-15% | % Chlorosis ([8]; imazamox 71 g/ha, 14 DAT): 0-5% | % Height Reduction ([8]; imazamox 71 g/ha, 14 DAT): 0-10% | % Chlorosis ([8]; imazamox 71 g/ha, 30 DAT): 0-10% | % Height Reduction ([8]; imazamox 71 g/ha, 30 DAT): 0-5% | % Chlorosis ([8]; imazamox 160 g/ha, 14 DAT): 5-10% | % Height Reduction ([8]; imazamox 160 g/ha, 14 DAT): 0-10% | % Chlorosis ([8]; imazamox 160 g/ha, 30 DAT): 5-15% | % Height Reduction ([8]; imazamox 160 g/ha, 30 DAT): 0-10% | % Chlorosis ([9]; imazamox 71 g/ha, 14 DAT): 90% | % Height Reduction ([9]; imazamox 71 g/ha, 14 DAT): 100% | % Chlorosis ([9]; imazamox 71 g/ha, 30 DAT): 100% | % Height Reduction ([9]; imazamox 71 g/ha, 30 DAT): 100% | % Chlorosis ([9]; imazamox 160 g/ha, 14 DAT): 90% | % Height Reduction ([9]; imazamox 160 g/ha, 14 DAT): 100% | % Chlorosis ([9]; imazamox 160 g/ha, 30 DAT): 100% | % Height Reduction ([9]; imazamox 160 g/ha, 30 DAT): 100% | survival of wild type plants ([9]; imazamox 71 g/ha and 160 g/ha (both rates), all plants of the wild type): killed | % Chlorosis ([10]; imazamox 71 g/ha, 14 DAT): 0-10% | % Height Reduction ([10]; imazamox 71 g/ha, 14 DAT): 0-10% | % Chlorosis ([10]; imazamox 71 g/ha, 30 DAT): 0-10% | % Height Reduction ([10]; imazamox 71 g/ha, 30 DAT): 0-10% | % Chlorosis ([10]; imazamox 160 g/ha, 14 DAT): 0-10% | % Height Reduction ([10]; imazamox 160 g/ha, 14 DAT): 0-10% | % Chlorosis ([10]; imazamox 160 g/ha, 30 DAT): 0-15% | % Chlorosis ([11]; imazamox 71 g/ha, 14 DAT): 30-40% | % Height Reduction ([11]; imazamox 71 g/ha, 14 DAT): 0-10% | % Chlorosis ([11]; imazamox 71 g/ha, 30 DAT): 0% | % Height Reduction ([11]; imazamox 71 g/ha, 30 DAT): 5-20% | % Chlorosis ([11]; imazamox 160 g/ha, 14 DAT): 40% | % Height Reduction ([11]; imazamox 160 g/ha, 14 DAT): 0-10% | % Chlorosis ([11]; imazamox 160 g/ha, 30 DAT): 0-5% | % Height Reduction ([11]; imazamox 160 g/ha, 30 DAT): 10-20% | % Chlorosis ([12]; imazamox 71 g/ha, 14 DAT): 0-10% | % Height Reduction ([12]; imazamox 71 g/ha, 14 DAT): 0-10% | % Chlorosis ([12]; imazamox 71 g/ha, 30 DAT): 0-5% | % Height Reduction ([12]; imazamox 71 g/ha, 30 DAT): 0-10% | % Chlorosis ([12]; imazamox 160 g/ha, 14 DAT): 10-15% | % Height Reduction ([12]; imazamox 160 g/ha, 14 DAT): 10-20% | % Chlorosis ([12]; imazamox 160 g/ha, 30 DAT): 5-10% | % Height Reduction ([12]; imazamox 160 g/ha, 30 DAT): 5-10% | % Chlorosis ([13]; imazamox 71 g/ha, 14 DAT): 5-10% | % Height Reduction ([13]; imazamox 71 g/ha, 14 DAT): 5-10% | % Chlorosis ([13]; imazamox 71 g/ha, 30 DAT): 5-10% | % Height Reduction ([13]; imazamox 71 g/ha, 30 DAT): 5-10% | % Chlorosis ([13]; imazamox 160 g/ha, 14 DAT): 5-15% | % Height Reduction ([13]; imazamox 160 g/ha, 14 DAT): 10-30% | % Chlorosis ([13]; imazamox 160 g/ha, 30 DAT): 5-20% | % Height Reduction ([13]; imazamox 160 g/ha, 30 DAT): 5-20%
